Experimental data taken from PubChem BioAssay AID266 (DTP/NCI, 2004).
“And” between values parts separate entries of the source, which are not always exact repeats. Equal values may be shown once. Results filed as inconclusive are left out.

System: Nude mice, LX-1 lung xenograft intrarenal, tumor weight T/C
Test: NCI In Vivo Anticancer Drug Screen. Data for tumor model Human Lung LX-1 Xenograft (intrarenal inoculation) in NU/NU BALB/C (nude) mice
Settings: endpoint: mean tumor weight change, higher = larger tumour
Description: The antitumor activity of compounds was measured in mice bearing transplantable tumors. Survival or tumor size were measured and the results are expressed as the measurement made in the treated group (T) divided by the measurement made in the vehicle treated control group (C). The tumor model used in this assay is Human Lung LX-1 Xenograft (intrarenal inoculation) in NU/NU BALB/C (nude) mice

[1] = dose: 100.0 mg/kg/injection, schedule: Q01DX010 (sc), vehicle: saline with Tween-80
[2] = dose: 200.0 mg/kg/injection, schedule: Q01DX010 (sc), vehicle: saline with Tween-80
[3] = dose: 300.0 mg/kg/injection, schedule: Q04DX003 (sc), vehicle: saline with Tween-80
[4] = dose: 600.0 mg/kg/injection, schedule: Q04DX003 (sc), vehicle: saline with Tween-80
[5] = dose: 1200.0 mg/kg/injection, schedule: Q04DX003 (sc), vehicle: saline with Tween-80
[6] = dose: 2400.0 mg/kg/injection, schedule: Q04DX003 (sc), vehicle: saline with Tween-80
[7] = dose: 200.0 mg/kg/injection, schedule: Q04DX003 (sc), vehicle: Klucel (hydroxypropylcellulose) (HPC)
[8] = dose: 50.0 mg/kg/injection, schedule: Q01DX010 (sc), vehicle: saline with Tween-80
[9] = dose: 400.0 mg/kg/injection, schedule: Q01DX010 (sc), vehicle: saline with Tween-80
[10] = dose: 18.75 mg/kg/injection, schedule: Q04DX003 (sc), vehicle: saline with Tween-80
[11] = dose: 37.5 mg/kg/injection, schedule: Q04DX003 (sc), vehicle: saline with Tween-80

CN(C)c1nc(N(C)C)nc(N(C)C)n1
T/C (dose: 12.5 mg/kg/injection, schedule: Q01DX010 (sc), vehicle: saline with Tween-80): 63 % of control | T/C (dose: 25.0 mg/kg/injection, schedule: Q01DX010 (sc), vehicle: saline with Tween-80): 95 % of control | T/C (dose: 60.0 mg/kg/injection, schedule: Q01DX010 (sc), vehicle: saline with Tween-80): 51 % of control | T/C [1]: 121 % of control | T/C (dose: 120.0 mg/kg/injection, schedule: Q01DX010 (sc), vehicle: saline with Tween-80): 58 % of control | T/C [2]: 74 % of control

OC1(CSc2ccccc2)CCCCC1
T/C (dose: 200.0 mg/kg/injection, schedule: Q04DX003 (sc), vehicle: saline with Tween-80): 75 % of control | T/C (dose: 400.0 mg/kg/injection, schedule: Q04DX003 (sc), vehicle: saline with Tween-80): 85 % of control | T/C (dose: 800.0 mg/kg/injection, schedule: Q04DX003 (sc), vehicle: saline with Tween-80): 82 % of control | T/C (dose: 1600.0 mg/kg/injection, schedule: Q04DX003 (sc), vehicle: saline with Tween-80): 90 % of control

CC(=O)OC1C(O)C(C)OC(OC2C(OC(=O)C3CCC4C(C3)OC3(CC(OC(=O)/C=C/c5ccccc5)C(C)CO3)C43CO3)OC(C)C(O)C2OC(C)=O)C1O (configuration not stated)
T/C (dose: 37.5 mg/kg/injection, schedule: Q04DX003 (sc), vehicle: distilled water + Tween-80): 121 % of control | T/C (dose: 75.0 mg/kg/injection, schedule: Q04DX003 (sc), vehicle: distilled water + Tween-80): 63 % of control

C=CC(C)NC(=S)NNC(=S)NC (configuration not stated)
T/C (dose: 300.0 mg/kg/injection, schedule: Q04DX003 (sc), vehicle: saline + alcohol): 115 % of control | T/C (dose: 600.0 mg/kg/injection, schedule: Q04DX003 (sc), vehicle: saline + alcohol): 87 % of control | T/C (dose: 1200.0 mg/kg/injection, schedule: Q04DX003 (sc), vehicle: saline + alcohol): 87 % of control | T/C (dose: 2400.0 mg/kg/injection, schedule: Q04DX003 (sc), vehicle: saline + alcohol): 78 % of control

COc1cccc2c1C(=O)c1c(O)c3c(c(O)c1C2=O)C[C@@](O)(C(=O)CO)C[C@@H]3OC1CC(OC(C)=O)C(OC(C)=O)C(C)O1 (some centres not stated)
T/C (dose: 25.0 mg/kg/injection, schedule: Q01DX010 (sc), vehicle: distilled water + Tween-80): 53 % of control

CC(=O)N(C)O
T/C (dose: 150.0 mg/kg/injection, schedule: Q04DX003 (sc), vehicle: saline with Tween-80): 92 % of control

CN1C(=O)C(=Cc2ccc(O)cc2)C(=O)N(C)C1=O
T/C [3]: 114 % of control | T/C [4]: 110 % of control | T/C [5]: 87 % of control | T/C [6]: 68 % of control

O=C(O)C1(NO)CCCCC1
T/C [7]: 81 % of control | T/C (dose: 400.0 mg/kg/injection, schedule: Q04DX003 (sc), vehicle: Klucel (hydroxypropylcellulose) (HPC)): 85 % of control | T/C (dose: 800.0 mg/kg/injection, schedule: Q04DX003 (sc), vehicle: Klucel (hydroxypropylcellulose) (HPC)): 81 % of control | T/C (dose: 1600.0 mg/kg/injection, schedule: Q04DX003 (sc), vehicle: Klucel (hydroxypropylcellulose) (HPC)): 77 % of control

CCCCCCCCCCC(OC(C)=O)C1CCC(C2CCC(C(O)CCCCCCCCCCCCC3C=C(C)OC3=O)O2)O1 (configuration not stated)
T/C (dose: 5.0 mg/kg/injection, schedule: Q04DX003 (sc), vehicle: water): 93 % of control | T/C (dose: 10.0 mg/kg/injection, schedule: Q04DX003 (sc), vehicle: water): 114 % of control | T/C (dose: 20.0 mg/kg/injection, schedule: Q04DX003 (sc), vehicle: water): 108 % of control | T/C (dose: 40.0 mg/kg/injection, schedule: Q04DX003 (sc), vehicle: water): 110 % of control

CNc1nc(N(C)C)nc(N(C)C)n1
T/C (dose: 30.0 mg/kg/injection, schedule: Q01DX010 (sc), vehicle: other): 169 % of control | T/C (dose: 60.0 mg/kg/injection, schedule: Q01DX010 (sc), vehicle: other): 29 % of control

COC1=C(OC)C(=O)C(C/C=C(\C)CC/C=C(\C)CC/C=C(\C)CC/C=C(\C)CC/C=C(\C)CC/C=C(\C)CC/C=C(\C)CC/C=C(\C)CC/C=C(\C)CCC=C(C)C)=C(C)C1=O
T/C [8]: 91 % of control | T/C [1]: 90 % of control | T/C [2]: 102 % of control | T/C [9]: 104 % of control

Nc1ccc(Cn2ccc3c4c(N)nc(N)nc4ccc32)cc1
T/C (dose: 9.38 mg/kg/injection, schedule: Q04DX003 (sc), vehicle: saline with Tween-80): 68 % of control | T/C [10]: 51 % of control | T/C [11]: 52 % of control

CC(C)CCC(=O)c1ccoc1
T/C (dose: 0.75 mg/kg/injection, schedule: Q01DX010 (ip), vehicle: saline with Tween-80): 123 % of control | T/C (dose: 3.0 mg/kg/injection, schedule: Q01DX010 (ip), vehicle: saline with Tween-80): 71 % of control | T/C (dose: 6.0 mg/kg/injection, schedule: Q01DX010 (ip), vehicle: saline with Tween-80): 73 % of control

COc1ccc(S(=O)(=O)N/N=C/C(=O)O)cc1
T/C [8]: 210 % of control | T/C [1]: 119 % of control | T/C [2]: 72 % of control

COc1c(C=O)c2c(c(OC)c1OC)-c1ccc(OC)c(=O)cc1[C@@H](NC(C)=O)CC2
T/C (dose: 18.75 mg/kg/injection, schedule: Q04DX003 (sc), vehicle: Klucel (hydroxypropylcellulose) (HPC)): 83 % of control | T/C (dose: 37.5 mg/kg/injection, schedule: Q04DX003 (sc), vehicle: Klucel (hydroxypropylcellulose) (HPC)): 59 % of control | T/C (dose: 75.0 mg/kg/injection, schedule: Q04DX003 (sc), vehicle: Klucel (hydroxypropylcellulose) (HPC)): 32 % of control

CN(C)N=Nc1ccc(S(N)(=O)=O)cc1
T/C (dose: 100.0 mg/kg/injection, schedule: Q01DX010 (sc), vehicle: Klucel (hydroxypropylcellulose) (HPC)): -13 % of control | T/C (dose: 100.0 mg/kg/injection, schedule: Q04DX003 (sc), vehicle: Klucel (hydroxypropylcellulose) (HPC)): 38 % of control and 61 % of control | T/C (dose: 200.0 mg/kg/injection, schedule: Q01DX010 (sc), vehicle: Klucel (hydroxypropylcellulose) (HPC)): -72 % of control | T/C [7]: 3 % of control and 11 % of control | T/C (dose: 400.0 mg/kg/injection, schedule: Q01DX010 (sc), vehicle: Klucel (hydroxypropylcellulose) (HPC)): -100 % of control

COc1ccc2c(ccc3oc([N+](=O)[O-])cc32)c1
T/C (dose: 150.0 mg/kg/injection, schedule: Q04DX003 (sc), vehicle: Klucel (hydroxypropylcellulose) (HPC)): 88 % of control | T/C (dose: 300.0 mg/kg/injection, schedule: Q04DX003 (sc), vehicle: Klucel (hydroxypropylcellulose) (HPC)): 96 % of control | T/C (dose: 600.0 mg/kg/injection, schedule: Q04DX003 (sc), vehicle: Klucel (hydroxypropylcellulose) (HPC)): 86 % of control

N=[N+]=CC(=O)CCC(NC(=O)C(CCC(=O)C=[N+]=N)NC(=O)CCC(N)C(=O)O)C(=O)O (configuration not stated)
T/C (dose: 0.2 mg/kg/injection, schedule: Q02DX005 (sc), vehicle: water): 114 % of control | T/C (dose: 0.4 mg/kg/injection, schedule: Q02DX005 (sc), vehicle: water): 73 % of control | T/C (dose: 0.8 mg/kg/injection, schedule: Q02DX005 (sc), vehicle: water): 26 % of control | T/C (dose: 1.6 mg/kg/injection, schedule: Q02DX005 (sc), vehicle: water): 74 % of control | T/C (dose: 3.2 mg/kg/injection, schedule: Q02DX005 (sc), vehicle: water): 65 % of control | T/C (dose: 6.4 mg/kg/injection, schedule: Q02DX005 (sc), vehicle: water): 41 % of control

O=C(c1cccnc1)c1cc(-c2ccccn2)c(=O)n2ccccc12
T/C [3]: 95 % of control | T/C [4]: 74 % of control | T/C [5]: 92 % of control | T/C [6]: 74 % of control

CCC1CCCCN1C(=S)N/N=C(\C)c1ccccn1 (configuration not stated)
T/C [10]: 100 % of control | T/C [11]: 83 % of control | T/C (dose: 75.0 mg/kg/injection, schedule: Q04DX003 (sc), vehicle: saline with Tween-80): 81 % of control

CC1=C(/C=C/C(C)=C/C=C/C(C)=C/C(=O)O)C(C)(C)CCC1
T/C [8]: 75 % of control

COc1cc(C[C@H]2c3cc(OC)c(OC)cc3CCN2C)c(Oc2cc3c(cc2OC)-c2c(OC)c(OC)cc4c2[C@H](C3)N(C)CC4)cc1OC
T/C [8]: 85 % of control | T/C [1]: 107 % of control | T/C [2]: 73 % of control | T/C [9]: 90 % of control

CC[C@@]1(O)C(=O)OCc2c1cc1n(c2=O)Cc2cc3ccccc3nc2-1
T/C (dose: 5.0 mg/kg/injection, schedule: Q04DX003 (sc), vehicle: saline with Tween-80): 15 % of control | T/C (dose: 10.0 mg/kg/injection, schedule: Q04DX003 (sc), vehicle: saline with Tween-80): 5 % of control and 12 % of control | T/C (dose: 20.0 mg/kg/injection, schedule: Q04DX003 (sc), vehicle: saline with Tween-80): 3 % of control and 4 % of control
